From ChEMBL document CHEMBL5506056, “Discovery of Novel Azaindoles as Potent and Selective PI3Kδ Inhibitors for Treatment of Multiple Sclerosis” (J Med Chem, 2024) come the findings set out here.

The target in assay [1] is Phosphatidylinositol 4,5-bisphosphate 3-kinase catalytic subunit alpha isoform (Homo sapiens, UniProt P42336). Put plainly: Inhibition of PI3Kalpha (unknown origin) using PIP2 as substrate incubated for 1 hr by ADP-Glo assay.
The target in assay [2] is Phosphatidylinositol 4,5-bisphosphate 3-kinase catalytic subunit beta isoform (Homo sapiens, UniProt P42338). Put plainly: Inhibition of PI3Kbeta (unknown origin) using PIP2 as substrate incubated for 1 hr by ADP-Glo assay.
Sequence of Phosphatidylinositol 4,5-bisphosphate 3-kinase catalytic subunit beta isoform (P42338 whole entry, canonical isoform): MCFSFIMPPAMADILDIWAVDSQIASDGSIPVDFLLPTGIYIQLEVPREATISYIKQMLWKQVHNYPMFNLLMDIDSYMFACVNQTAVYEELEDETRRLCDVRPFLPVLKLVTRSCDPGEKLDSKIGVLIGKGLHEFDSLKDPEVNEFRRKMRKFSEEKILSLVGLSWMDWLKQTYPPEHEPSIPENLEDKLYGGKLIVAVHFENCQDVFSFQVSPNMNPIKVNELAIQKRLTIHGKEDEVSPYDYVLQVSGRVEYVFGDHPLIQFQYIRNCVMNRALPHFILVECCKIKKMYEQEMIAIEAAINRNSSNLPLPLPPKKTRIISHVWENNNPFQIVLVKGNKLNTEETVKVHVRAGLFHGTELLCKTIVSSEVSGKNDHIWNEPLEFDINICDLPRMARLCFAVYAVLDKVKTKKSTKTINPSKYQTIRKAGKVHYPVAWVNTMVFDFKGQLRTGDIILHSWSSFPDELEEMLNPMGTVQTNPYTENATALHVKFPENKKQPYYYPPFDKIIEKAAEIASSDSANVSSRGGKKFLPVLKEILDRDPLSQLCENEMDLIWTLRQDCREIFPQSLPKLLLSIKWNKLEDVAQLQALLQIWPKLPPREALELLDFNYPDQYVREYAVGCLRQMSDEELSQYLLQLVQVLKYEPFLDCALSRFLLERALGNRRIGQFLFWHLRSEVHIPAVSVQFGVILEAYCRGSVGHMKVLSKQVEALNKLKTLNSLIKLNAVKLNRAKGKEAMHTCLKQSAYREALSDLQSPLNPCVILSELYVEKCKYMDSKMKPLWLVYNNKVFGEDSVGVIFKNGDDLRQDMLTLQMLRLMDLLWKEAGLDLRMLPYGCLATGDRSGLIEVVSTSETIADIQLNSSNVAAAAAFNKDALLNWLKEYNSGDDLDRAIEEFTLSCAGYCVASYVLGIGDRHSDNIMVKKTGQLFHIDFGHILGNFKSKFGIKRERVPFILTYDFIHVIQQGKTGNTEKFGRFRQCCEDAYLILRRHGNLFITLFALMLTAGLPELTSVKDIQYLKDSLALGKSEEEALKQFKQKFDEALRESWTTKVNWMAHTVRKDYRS
The target in assay [3] is Phosphatidylinositol 4,5-bisphosphate 3-kinase catalytic subunit gamma isoform (Homo sapiens, UniProt P48736). Put plainly: Inhibition of PI3Kgamma (unknown origin) using PIP2 as substrate incubated for 1 hr by ADP-Glo assay. On the technique in general: In ADP-Glo the light output rises with the ADP produced.
Sequence of Phosphatidylinositol 4,5-bisphosphate 3-kinase catalytic subunit gamma isoform (P48736 whole entry, canonical isoform): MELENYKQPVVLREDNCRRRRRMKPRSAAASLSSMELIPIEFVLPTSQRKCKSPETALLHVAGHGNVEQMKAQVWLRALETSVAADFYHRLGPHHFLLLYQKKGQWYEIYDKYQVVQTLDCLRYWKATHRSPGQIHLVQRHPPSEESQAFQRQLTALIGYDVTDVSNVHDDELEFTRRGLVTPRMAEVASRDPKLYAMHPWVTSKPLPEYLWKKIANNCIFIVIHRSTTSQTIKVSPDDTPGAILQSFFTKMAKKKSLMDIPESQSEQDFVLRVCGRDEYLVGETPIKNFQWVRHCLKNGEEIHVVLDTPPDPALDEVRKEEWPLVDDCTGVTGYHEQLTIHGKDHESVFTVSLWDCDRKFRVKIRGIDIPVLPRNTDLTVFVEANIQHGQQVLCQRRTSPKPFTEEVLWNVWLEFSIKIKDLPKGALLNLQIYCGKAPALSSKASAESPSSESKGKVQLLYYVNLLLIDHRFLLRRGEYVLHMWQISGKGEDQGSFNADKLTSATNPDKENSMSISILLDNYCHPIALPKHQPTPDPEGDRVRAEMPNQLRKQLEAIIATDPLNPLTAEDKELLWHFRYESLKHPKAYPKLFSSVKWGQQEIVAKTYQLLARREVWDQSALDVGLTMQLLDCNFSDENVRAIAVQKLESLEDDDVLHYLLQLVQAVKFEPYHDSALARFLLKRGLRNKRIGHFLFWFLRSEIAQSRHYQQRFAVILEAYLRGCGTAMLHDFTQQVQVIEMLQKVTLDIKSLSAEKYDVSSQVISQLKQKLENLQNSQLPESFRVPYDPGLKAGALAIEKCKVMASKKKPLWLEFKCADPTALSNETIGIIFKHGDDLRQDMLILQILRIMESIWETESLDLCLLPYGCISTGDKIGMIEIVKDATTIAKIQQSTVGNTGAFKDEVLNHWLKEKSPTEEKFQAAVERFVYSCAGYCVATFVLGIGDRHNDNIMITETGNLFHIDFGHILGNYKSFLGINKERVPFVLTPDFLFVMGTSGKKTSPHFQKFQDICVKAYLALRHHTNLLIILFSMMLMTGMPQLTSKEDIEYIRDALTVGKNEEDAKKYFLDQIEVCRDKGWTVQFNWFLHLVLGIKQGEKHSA
Assay [4] can be described thus: Inhibition of mouse CD3-positive T cell proliferation pre-stimulated with anti-CD3/anti-CD28 followed by compound treatment by flow cytometry. For orientation: A flow cytometer gives signals particle by particle.
A short description of assay [5]: Inhibition of mouse CD3-positive T cell activation pre-stimulated with anti-CD3/anti-CD28 followed by compound treatment by flow cytometry.

Sequence of Phosphatidylinositol 4,5-bisphosphate 3-kinase catalytic subunit alpha isoform (P42336 whole entry, canonical isoform): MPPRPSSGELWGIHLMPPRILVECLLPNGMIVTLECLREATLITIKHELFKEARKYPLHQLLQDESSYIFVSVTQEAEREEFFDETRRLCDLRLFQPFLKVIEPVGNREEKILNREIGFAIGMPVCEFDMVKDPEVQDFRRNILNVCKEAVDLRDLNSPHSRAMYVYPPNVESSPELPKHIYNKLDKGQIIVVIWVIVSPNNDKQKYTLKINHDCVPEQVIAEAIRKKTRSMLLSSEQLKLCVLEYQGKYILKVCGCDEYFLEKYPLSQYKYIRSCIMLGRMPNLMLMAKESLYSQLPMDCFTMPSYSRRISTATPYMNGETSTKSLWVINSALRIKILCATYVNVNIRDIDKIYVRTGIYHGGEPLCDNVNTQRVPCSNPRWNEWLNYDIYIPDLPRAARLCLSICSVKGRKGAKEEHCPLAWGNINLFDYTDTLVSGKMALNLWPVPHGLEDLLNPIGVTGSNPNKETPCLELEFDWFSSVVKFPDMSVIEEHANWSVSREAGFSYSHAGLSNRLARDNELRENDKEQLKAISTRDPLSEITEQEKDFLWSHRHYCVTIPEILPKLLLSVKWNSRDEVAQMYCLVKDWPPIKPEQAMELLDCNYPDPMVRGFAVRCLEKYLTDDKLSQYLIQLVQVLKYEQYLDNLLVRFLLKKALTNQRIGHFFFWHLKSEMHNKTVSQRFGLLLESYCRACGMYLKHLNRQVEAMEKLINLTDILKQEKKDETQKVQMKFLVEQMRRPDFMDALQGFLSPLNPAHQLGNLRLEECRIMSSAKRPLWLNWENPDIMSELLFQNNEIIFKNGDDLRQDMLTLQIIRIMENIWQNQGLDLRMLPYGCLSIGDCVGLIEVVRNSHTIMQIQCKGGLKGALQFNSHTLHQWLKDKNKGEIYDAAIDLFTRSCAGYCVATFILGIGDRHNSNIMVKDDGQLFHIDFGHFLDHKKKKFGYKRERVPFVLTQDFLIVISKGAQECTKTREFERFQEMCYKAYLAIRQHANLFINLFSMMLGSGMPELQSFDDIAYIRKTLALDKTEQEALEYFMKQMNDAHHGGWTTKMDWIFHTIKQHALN

What is called IC50 is the concentration that gives 50% inhibition. Lower therefore signals higher potency. `C[C@H](Nc1nc(N)nc(N)c1C#N)c1cn(-c2cccnc2)c2cc(Cl)cnc12`: the half-maximal inhibitory concentration (IC50) was 7.03 µM in assay [1], 1.66 µM in assay [2] and over 10 µM in assay [3].

`CC(Nc1nc(N)nc(N)c1C#N)c1cn(-c2cccnc2)c2cc(Cl)cnc12` (stereo unspecified): the IC50 in assay [1], in assay [2] and in assay [3] was over 10 µM in each case.

Take `C[C@@H](Nc1nc(N)nc(N)c1C#N)c1cn(-c2cccnc2)c2cc(Cl)cnc12` (racemic): the IC50 in assay [1] was over 10 µM; in assay [2] it was 2.36 µM; in assay [3], over 10 µM.

As to `CC[C@H](Nc1ncnc2[nH]cnc12)c1nc2cccc(F)c2c(=O)n1-c1ccccc1` [IDELALISIB], the IC50 in assay [4] was 8.97 µM; in assay [5], over 10 µM.
